# Test results reported in patent US10975123B2, “Mutant Akt-specific capture agents, compositions, and methods of using and making” (California Institute of Technology, priority 2014, dated 2021).
# Where a SMILES comes first, the peptide text is derived from it. [ ]: non-standard residue; d: D form.
# What was measured:
# [1] = target: T1, GST-Akt1(E17K) protein (Homo sapiens, UniProt P31749, E17K); experiment: Ligand-directed tosylate labeling with MALDI-TOF MS of tryptic digests; type: binding; conditions: yleaf with N-terminal tosylate-Cy5 (ligand 5), 10x molar excess, two days room temperature
# T1 construct: 50 μL of full-length GST-E17K Akt1 from SignalChem was treated with 10× molar excess of the anchor ligand; purchased SignalChem
# T1 sequence (P31749 whole entry E17K): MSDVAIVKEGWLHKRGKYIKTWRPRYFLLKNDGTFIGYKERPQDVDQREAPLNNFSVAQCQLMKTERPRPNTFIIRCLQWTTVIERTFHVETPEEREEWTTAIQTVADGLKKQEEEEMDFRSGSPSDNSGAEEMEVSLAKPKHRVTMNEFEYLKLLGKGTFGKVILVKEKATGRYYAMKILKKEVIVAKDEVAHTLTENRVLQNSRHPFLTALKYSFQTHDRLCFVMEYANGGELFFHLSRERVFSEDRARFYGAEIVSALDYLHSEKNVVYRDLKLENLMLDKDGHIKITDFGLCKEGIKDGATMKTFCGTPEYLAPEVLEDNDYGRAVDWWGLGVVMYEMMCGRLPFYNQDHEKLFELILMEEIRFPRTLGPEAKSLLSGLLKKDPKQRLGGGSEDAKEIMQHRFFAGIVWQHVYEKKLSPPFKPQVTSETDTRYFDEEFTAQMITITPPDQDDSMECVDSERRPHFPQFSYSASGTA
# From the text: The selectivity of the yleaf ligand was further verified using the directed labeling technique reported by Tsukiji et al^19. The approach yields information relative to the binding location of the ligand on the protein target. For this method, a payload is attached to the N-terminus of the targeting yleaf ligand through an electrophilic tosylate linker. Upon ligand binding to the protein target, the payload is transferred onto the protein through a nucleophilic SN2 reaction with proximal nucleophilic amino acid side chains (FIG. 3a). The protein can then be trypsin digested and the identity of the fragments containing the payload can be mapped on the protein surface using mass spectrometry (MS). Thus, the site of ligand binding can be estimated. […]
# For the assay, yleaf was modified at the N-terminus to contain a tosylate linker attached to a Cy5 dye molecule to enable easy identification of the labeled and digested protein fragments (FIG. 2a and FIG. 16). […] The labeling of protein target was initially confirmed by visualization on a fluorescent gel reader (FIG. 3b) as well as a Western blotting visualization of an experiment in which a biotin-label was substituted for the fluorescent tag. The labeled protein and an unlabeled control were then trypsin digested from the gel and were analyzed by matrix-assisted laser desorption/ionization time-of-flight (MALDI-TOF) MS (FIGS. 18 and 19). […]
# [2] = target: T2, WT 33-mer fragment (6His-tagged) (Homo sapiens, UniProt P31749, H13K); experiment: HPLC-detected immunoprecipitation (pulldown), WT 33-mer; type: binding; conditions: 50 μM epitope, overnight 4° C., guanidine elution, in words
# T2 construct: made in house; host or cells: chemical synthesis (Fmoc SPPS)
# T2 sequence (P31749 1-33 H13K limits assumed): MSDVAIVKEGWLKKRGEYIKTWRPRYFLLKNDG
# From the text: The label-modified yleaf (SEQ ID NO: 43) peptide (FIG. 2a and FIG. 12) was subjected to a variety of binding assays against the synthesized WT and E17K 33-mer PHD fragments prepared without the biotin label and alkyne click handle. First, the yleaf (SEQ ID NO: 43) peptide was used in immunoprecipitation assays to pull-down either the WT or E17K mutant 6His-tagged (SEQ ID NO: 4) 33-mer peptide fragments (FIGS. 13 and 14), as opposed to the full-length proteins that were used to initially validate the candidates. Typical immunoprecipitation assays involve western blotting to estimate the amount of protein binding, but 33-mer peptide fragments are not easily quantified on a blot. Because of this, the amount of peptide epitope precipitated in these assays was quantified via injection on an analytical HPLC. These assays further confirmed preferential yleaf (SEQ ID NO: 43) ligand binding to the E17K 33-mer epitope relative to the WT epitope (FIG. 15).
# Pulldown assays with the biotinylated anchor and his-tagged 33-mer epitope were performed to verify epitope targeting. […] Because small peptide fragments like the 33-mer epitope are difficult to transfer to and detect on the nitrocellulose membrane as for a traditional Western blot, the amount of binding in these assays was detected via HPLC. […]
structure (smiles),measurement,setting,value
CC(C)C[C@@H](NC(=O)[C@H](N)Cc1ccc(O)cc1)C(=O)N[C@H](CCC(=O)O)C(=O)N[C@H](C)C(=O)N[C@H](Cc1ccccc1)C(N)=O [yleaf] (H-[dY][dL][dE][dA][dF]-NH2; N-terminus assumed),"location of labeled sites on the protein (binding site, off-target binding)",[1],only sites around the expected N-terminal binding site of the yleaf ligand are labeled
same,amount of WT 33-mer fragment pulled down (HPLC peak),[2],the least of the WT fragment
